These are literature values, as cited in patent publication US12030986B2, “Sustained release composition using biobased biodegradable hyperbranched polyesters” (CENTRAL MICHIGAN UNIVERSITY, priority 2014, dated 2024).

By pKa is commonly meant the negative logarithm of the acid dissociation constant. In the case of `O=C(O)c1ccccn1` [picolinic acid], the pKa is reported as 1.0.

In the case of `N[C@@H](CCC(=O)O)C(=O)O` [glutamic], the pKa is given as 2.1.

Turning to `N[C@@H](CC(=O)O)C(=O)O` [aspartic], the pKa is 2.0.

In the case of `O=C(O)/C=C(/CC(=O)O)C(=O)O` [cis-aconitic], the pKa is recorded as 2.0.

As to `CC(=O)C(=O)O` [pyruvic], the pKa was 2.4.

For `NC(CS(=O)(=O)O)C(=O)O` (stereo not drawn) [cysteic], the pKa is 1.3.

For `O=C(O)[C@@H]1C[C@@H](O)CN1` (relative stereo) [trans-4-hydroxyproline], the pKa was 1.8.

For the compound `CNCC(=O)O` [methlyglycine], the pKa was 2.2.

For the compound `C[C@@H](O)[C@H](N)C(=O)O` [threonine], the pKa is 2.1.

Take `O=C(O)c1cccnc1` [nicotinic]: the pKa was 2.2.

For `O=P(O)(O)O[C@H]1[C@H](OP(=O)(O)O)[C@@H](OP(=O)(O)O)[C@H](OP(=O)(O)O)[C@@H](OP(=O)(O)O)[C@H]1OP(=O)(O)O` [Phytic, phytic acid], the pKa is 1.8.

In the case of `N[C@@H](CCSSCC[C@H](N)C(=O)O)C(=O)O` [homocystine], the pKa is given as 1.6.
